Assay [1] has as its system T-Rex 293 cell line SC3 cells having increased expression of androgen receptor protein. The experiment in a line: Cellular growth inhibition, T-Rex 293 SC3 cells with increased androgen receptor expression (doxycycline), CellTiter-Glo. The class given is cell-based. The following applies: T-Rex 293 SC3 cells with increased androgen receptor expression (exposed to 10 ng/mL doxycycline), 72 hours, CellTiter-Glo; read-out: GI50. A digest of the protocol:
(§1)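 SC3, a T-Rex 293 clone with doxycycline-inducible wild-type androgen receptor, was seeded in phenol red-free DMEM with 10% charcoal-dextran FBS, with or without 10 ng/mL doxycycline. Compound added at 24 h (0.5% DMSO) for 72 h at 37° C. CellTiter-Glo 2.0 luminescence; GI50 from four-parameter fit.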
In general terms: ATP-based viability assays read luminescence as a measure of living cells.

The test system of assay [2] is T-Rex 293 cell line SC3 cells lacking increased expression of androgen receptor protein. As to the kind of experiment: Cellular growth inhibition, T-Rex 293 SC3 cells lacking increased androgen receptor expression (no doxycycline), CellTiter-Glo. Format: cell-based. The following applies: T-Rex 293 SC3 cells lacking increased androgen receptor expression (not exposed to doxycycline), 72 hours, CellTiter-Glo; read-out: GI50. In short, it runs like this:
as §1

The test system of assay [3] is T47D cells. The experiment in a line: Cellular growth inhibition assay for T47D cells, CellTiter-Glo. Format: cell-based, human. Conditions: 72 hours treatment, CellTiter-Glo 2.0. The method, then: T47D cells were purchased from American Type Cell Culture (ATCC Cat #HTB-133) and then seeded on poly-D-lysine coated, black clear-bottom 384-well plates at 3000/well in 25 μL Dulbecco's Modified Eagle Medium (DMEM) supplemented with 10% w/w Fetal bovine serum (FBS), 0.2 units/mL recombinant human insulin (Gibco Cat #12585014), and 1% w/w Pen-Strep. Pen-Strep is a commercially available mixture of penicillin G and streptomycin, which is used in mammalian cell culture media to prevent bacterial contamination. Dulbecco's Modified Eagle Medium (DMEM) supplemented with 10% w/w fetal bovine serum (FBS), 0.2 units/mL recombinant human insulin, and 1% w/w Pen-Strep is herein referred to as Treatment Medium. Following seeding of cells in the plates, the plates were spun at 300×g for 30 seconds, then equilibrated to room temperature for 30 minutes, and then deposited in a humidified tissue culture incubator maintained at 37° C. with 5% CO2.
At 24 hours after seeding of the cells, dilutions of test compound were prepared in DMSO and dissolved in Treatment Medium, to achieve a final DMSO concentration of 0.5% w/w, thereby providing the Test Compound Solution. A 25 μL aliquot of the Test Compound Solution was added to cells in the well plates. An equal volume of a solution containing DMSO and Treatment Medium was used as a negative control. Following treatment of cells with Test Compound Solution or said equal volume of a solution containing DMSO and Treatment Medium, the plates were spun at 300×g for 30 seconds, and then left in an incubator for 72 hours.
At the end of the treatment duration, cell viability was quantified with CellTiter-Glo 2.0 reagent (Promega Cat #G9243). For this purpose, plates were equilibrated to room temperature for 30 minutes, and then 25 μL of CellTiter-Glo 2.0 reagent was added to cells in the plate wells. Plates were then agitated on a shaker for two minutes at 500 rpm and subsequently incubated at room temperature for 10 minutes. Following incubation, the plates were spun at 3000×g for 30 seconds, then sealed with an optical adhesive cover, and luminescence readings were measured with an EnVision Plate Reader (Perkin Elmer).
Data was normalized using zero luminescence for baseline. A four-parameter non-linear regression curve fit was applied to dose-response data in GraphPad Prism data analysis software to determine the half-maximal growth inhibitory concentration (GI50) for each test compound.

The test system of assay [4] is VCaP cells. As to the kind of experiment: Cellular growth inhibition assay for VCaP cells, CellTiter-Glo. Format: cell-based, human. Conditions: VCaP cells, 72 hours, CellTiter-Glo, read-out: GI50. A digest of the protocol:
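GI50 values come from four-parameter curve fits of luminescence data normalized to a zero baseline. Compound, in medium with 0.5% DMSO, was added one day after plating and left for 72 h before CellTiter-Glo 2.0 addition.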

This passage reports GI50 results from US20250388575A1, “HETEROBIFUNCTIONAL COMPOUNDS AND METHODS OF TREATING DISEASE” (Halda Therapeutics OpCo, Inc., priority 2022, published 2025).

By GI50 is commonly meant the concentration at which growth is held to half of that of the control.

Like-named read-outs stand apart in the source and are kept apart here.

On to `CCS(=O)(=O)c1ccc(Oc2ccc(OC3CC4(C3)CN(c3ccc(C(=O)N[C@H]5CC[C@H](Oc6ccc(C#N)c(Cl)c6)CC5)nn3)C4)c(F)c2)c(-c2cn(C)c(=O)c3[nH]ccc23)c1` [I-44], for which the 50% growth inhibitory concentration (GI50) in assay [1], in assay [2], in assay [3] (Homo sapiens) and in assay [4] (Homo sapiens) was below 500 nM throughout.
As to `CCS(=O)(=O)c1ccc(Oc2cccc(CCCOC3CC4(C3)CN(c3cnc(C(=O)N[C@H]5CC[C@H](Oc6ccc(C#N)c(Cl)c6)CC5)cn3)C4)c2F)c(-c2cn(C)c(=O)c3[nH]ccc23)c1` [I-48], the GI50 in assay [1] was below 500 nM; in assay [2], below 500 nM; in assay [3] (Homo sapiens), below 500 nM; in assay [4] (Homo sapiens) it was 500 to 1500 nM.
As for `CCS(=O)(=O)c1ccc(Oc2cc(F)c(CCC3CCN(c4ccc(C(=O)N[C@H]5CC[C@H](Oc6ccc(C#N)c(Cl)c6)CC5)nn4)CC3)c(F)c2)c(-c2cn(C)c(=O)c3[nH]ccc23)c1` [I-49], the 50% growth inhibitory concentration (GI50) in assay [1] is below 500 nM; in assay [2], below 500 nM; in assay [3] it was 1500 to 3000 nM; in assay [4] it was below 500 nM.
For `CCS(=O)(=O)c1ccc(Oc2c(F)cc(CCC3CCN(c4ccc(C(=O)N[C@H]5CC[C@H](Oc6ccc(C#N)c(Cl)c6)CC5)nn4)CC3)cc2F)c(-c2cn(C)c(=O)c3[nH]ccc23)c1` [I-58], the concentration for 50% growth inhibition (GI50) was below 500 nM in assay [1], above 3000 nM in assay [2], below 500 nM in assay [3] and below 500 nM in assay [4].
Consider `CCS(=O)(=O)c1ccc(Oc2ccc(C3CC4(CCN(c5ccc(C(=O)N[C@H]6CC[C@H](Oc7ccc(C#N)c(Cl)c7)CC6)nn5)CC4)C3)cc2)c(-c2cn(C)c(=O)c3[nH]ccc23)c1` [I-60], for which the GI50 in assay [1], in assay [2], in assay [3] and in assay [4] was below 500 nM throughout.
Take `CCS(=O)(=O)c1ccc(Oc2ccc(CCCC3CCN(c4ccc(C(=O)N[C@H]5CC[C@H](Oc6ccc(C#N)c(Cl)c6)CC5)nn4)CC3)cc2)c(-c2cn(C)c(=O)c3[nH]ccc23)c1` [I-61]: the GI50 in assay [1], in assay [2], in assay [3] (Homo sapiens) and in assay [4] (Homo sapiens) was below 500 nM throughout.
Regarding `CCS(=O)(=O)c1ccc(Oc2cccc(CCCC3CCN(c4ncc(C(=O)N[C@H]5CC[C@H](Oc6ccc(C#N)c(Cl)c6)CC5)cn4)CC3)c2)c(-c2cn(C)c(=O)c3[nH]ccc23)c1` [I-66], the GI50 in assay [1], in assay [2], in assay [3] and in assay [4] was below 500 nM throughout.
On to `CCS(=O)(=O)c1ccc(Oc2ccc(CCC3CC4(C3)CN(c3ccc(C(=O)N[C@H]5CC[C@H](Oc6ccc(C#N)c(Cl)c6)CC5)nn3)C4)cc2)c(-c2cn(C)c(=O)c3[nH]ccc23)c1` [I-67], for which the GI50 in assay [1], in assay [2], in assay [3] and in assay [4] was below 500 nM in each case.
Take `CCS(=O)(=O)c1ccc(Oc2ccc(CCCC3CN(c4ccc(C(=O)N[C@H]5CC[C@H](Oc6ccc(C#N)c(Cl)c6)CC5)nn4)C3)cc2)c(-c2cn(C)c(=O)c3[nH]ccc23)c1` [I-68]: the GI50 in assay [1], in assay [2], in assay [3] and in assay [4] was below 500 nM in each case.
In the case of `CCS(=O)(=O)c1ccc(Oc2ccc(CC3CC4(C3)CN(c3ccc(C(=O)N[C@H]5CC[C@H](Oc6ccc(C#N)c(Cl)c6)CC5)nn3)C4)cc2)c(-c2cn(C)c(=O)c3[nH]ccc23)c1` [I-69], the 50% growth inhibitory concentration (GI50) in assay [1], in assay [2], in assay [3] (Homo sapiens) and in assay [4] (Homo sapiens) was below 500 nM in each case.
Consider `CCS(=O)(=O)c1ccc(Oc2ccc(CCC3C4CN(c5ccc(C(=O)N[C@H]6CC[C@H](Oc7ccc(C#N)c(Cl)c7)CC6)nn5)CC34)cc2)c(-c2cn(C)c(=O)c3[nH]ccc23)c1` (stereo partly shown) [I-70], for which the GI50 in assay [1], in assay [2], in assay [3] and in assay [4] was below 500 nM throughout.
Regarding `CCS(=O)(=O)c1ccc(Oc2ccc(CCCC3C4CN(c5ccc(C(=O)N[C@H]6CC[C@H](Oc7ccc(C#N)c(Cl)c7)CC6)nn5)CC34)cc2)c(-c2cn(C)c(=O)c3[nH]ccc23)c1` (stereo partly shown) [I-71], the GI50 in assay [1], in assay [2], in assay [3] (Homo sapiens) and in assay [4] (Homo sapiens) was below 500 nM in each case.
`CCS(=O)(=O)c1ccc(Oc2ccc(CCC3CN(c4ccc(C(=O)N[C@H]5CC[C@H](Oc6ccc(C#N)c(Cl)c6)CC5)nn4)C3)cc2)c(-c2cn(C)c(=O)c3[nH]ccc23)c1` [I-72]: the GI50 in assay [1], in assay [2], in assay [3] and in assay [4] was below 500 nM in each case.
On to `CCS(=O)(=O)c1ccc(Oc2ccc(CCCCC3CN(c4ccc(C(=O)N[C@H]5CC[C@H](Oc6ccc(C#N)c(Cl)c6)CC5)nn4)C3)cc2)c(-c2cn(C)c(=O)c3[nH]ccc23)c1` [I-73], for which the GI50 in assay [1], in assay [2], in assay [3] and in assay [4] was below 500 nM throughout.
On to `CCS(=O)(=O)c1ccc(Oc2ccc(CN3CC4(C3)CN(c3ccc(C(=O)N[C@H]5CC[C@H](Oc6ccc(C#N)c(Cl)c6)CC5)nn3)C4)c(F)c2)c(-c2cn(C)c(=O)c3[nH]ccc23)c1` [I-74], for which the GI50 in assay [1], in assay [2], in assay [3] (Homo sapiens) and in assay [4] (Homo sapiens) was below 500 nM throughout.
Turning to `CCS(=O)(=O)c1ccc(Oc2ccc(CN3CCC4(CCN(c5ccc(C(=O)N[C@H]6CC[C@H](Oc7ccc(C#N)c(Cl)c7)CC6)nn5)C4)C3)c(F)c2)c(-c2cn(C)c(=O)c3[nH]ccc23)c1` (stereo partly shown) [I-75], the GI50 in assay [1], in assay [2], in assay [3] (Homo sapiens) and in assay [4] (Homo sapiens) was below 500 nM in each case.
As for `Cn1cc(-c2cc(S(=O)(=O)C3CC3)ccc2Oc2ccc(CCC3CCN(c4ccc(C(=O)N[C@H]5CC[C@H](Oc6ccc(C#N)c(Cl)c6)CC5)nn4)CC3)cc2)c2cc[nH]c2c1=O` [I-76], the GI50 in assay [1], in assay [2], in assay [3] and in assay [4] was below 500 nM in each case.
`CCS(=O)(=O)c1ccc(Oc2ccc(CC3CN(c4ccc(C(=O)N[C@H]5CC[C@H](Oc6ccc(C#N)c(Cl)c6)CC5)nn4)C3)cc2)c(-c2cn(C)c(=O)c3[nH]ccc23)c1` [I-77]: the GI50 in assay [1], in assay [2], in assay [3] (Homo sapiens) and in assay [4] (Homo sapiens) was below 500 nM each time.
Take `CCS(=O)(=O)c1ccc(Oc2ccc(CN3CC4(CCN(c5ccc(C(=O)N[C@H]6CC[C@H](Oc7ccc(C#N)c(Cl)c7)CC6)nn5)CC4)C3)c(F)c2)c(-c2cn(C)c(=O)c3[nH]ccc23)c1` [I-78]: the GI50 in assay [1], in assay [2], in assay [3] (Homo sapiens) and in assay [4] (Homo sapiens) was below 500 nM each time.
For `CCS(=O)(=O)c1ccc(Oc2ccc(CCC3CCN(c4ccc(C(=O)N[C@H]5CC[C@H](Oc6ccc(C#N)c(Cl)c6)CC5)nn4)CC3)c(C#N)c2)c(-c2cn(C)c(=O)c3[nH]ccc23)c1` [I-79], the GI50 was below 500 nM in assay [1], above 3000 nM in assay [2], 500 to 1500 nM in assay [3] and below 500 nM in assay [4].
As to `CCS(=O)(=O)c1ccc(Oc2ccc(CC3CCN(c4ccc(C(=O)N[C@H]5CC[C@H](Oc6ccc(C#N)c(Cl)c6)CC5)nn4)CC3)c(F)c2)c(-c2cn(C)c(=O)c3[nH]ccc23)c1` [I-80], the GI50 in assay [1], in assay [2], in assay [3] (Homo sapiens) and in assay [4] (Homo sapiens) was below 500 nM throughout.
For the compound `CCS(=O)(=O)c1ccc(Oc2ccc(CC3CC4(CCN(c5ccc(C(=O)N[C@H]6CC[C@H](Oc7ccc(C#N)c(Cl)c7)CC6)nn5)CC4)C3)c(F)c2)c(-c2cn(C)c(=O)c3[nH]ccc23)c1` [I-81], the GI50 in assay [1], in assay [2], in assay [3] (Homo sapiens) and in assay [4] (Homo sapiens) was below 500 nM throughout.
